Measurements reported in patent US11512079B2, “Heterocycle substituted pyridine derivative antifungal agents” (Amplyx Pharmaceuticals, Inc., priority 2017, dated 2022).
Converted amounts (≈) assume the structure as drawn.

How the values were obtained:
[1] = test system: strains of C. neoformans and C. gattii; test: Activity vs Cryptococcus, summary over the strains tested; type: cell-based, Cryptococcus neoformans and Cryptococcus gattii; settings: C. neoformans H99 and C. gattii WM276 (Table 3)
Text: The activity of Gwt1 inhibitors against susceptible and FLC non-susceptible/resistant strains.
(§1) Isolates tested. C. neoformans strains H99, DUMC 118.00, DUMC 158.03 and C. gattii strains R272, and RSA-MW-3515 were obtained from Duke University. C. albicans 90028, A. fumigatus MYA3626, C. neoformans 14116, C. neoformans 76484 and the pathogenic Cryptococcus reference strains panel (ATCC MP-11) were obtained from American Type Culture Collection (ATCC, Manassas, Va., USA). The MP-11 panel consists of strains representing eight molecular types and three subtypes of C. neoformans and C. gattii.
Antifungal susceptibility testing. To establish antimicrobial activity, broth microdilution susceptibility testing was performed according to Clinical and Laboratory Standards Institute (CLSI) guidelines M27-A3 for yeasts and M38-A2 for molds. Compound 2 and analogs were first diluted in DMSO to obtain intermediate dilutions. These were further diluted in microtiter plates to obtain a final concentration of 2 to 0.002 μg/mL. 1 μl of DMSO was added to “No drug” control wells. The solutions were mixed on a plate shaker for 10 mins and plates incubated at 35° C. for 40 to 48 h (C. albicans, A. fumigatus) and 72 h (C. neoformans). The minimum concentration that led to 50% reduction in fungal growth as compared to the control (with the aid of a reading mirror) was determined as the minimum inhibitory concentration (MIC) for C. albicans and C. neoformans.

C. neoformans H99 = test: Antifungal susceptibility testing, CLSI broth microdilution (Example 496/497); type: cell-based, Cryptococcus neoformans
Text: as §1
(§2) Antifungal susceptibility testing. To establish antimicrobial activity, broth microdilution susceptibility testing was performed according to Clinical and Laboratory Standards Institute (CLSI) guidelines M27-A3 for yeasts and M38-A2 for molds. Compound 2 and analogs were first diluted in DMSO to obtain intermediate dilutions. These were further diluted in microtiter plates to obtain a final concentration of 2 to 0.002 μg/mL. 1 μl of DMSO was added to “No drug” control wells. The solutions were mixed on a plate shaker for 10 mins and plates incubated at 35° C. for 40 to 48 h (C. albicans, A. fumigatus) and 72 h (C. neoformans). The minimum concentration that led to 50% reduction in fungal growth as compared to the control (with the aid of a reading mirror) was determined as the minimum inhibitory concentration (MIC) for C. albicans and C. neoformans. The minimum concentration that led to shortening of hyphae as compared to hyphal growth in DMSO control wells was determined as the minimum effective concentration (MEC) for A. fumigatus (as read for echinocandins). The use of the MIC and MEC endpoints for Compound 2 against yeasts and molds, respectively has been described previously.

C. neoformans strain H99 = test: Murine model of cryptococcal meningitis, dosing in the presence of the pan-CYP inhibitor ABT, CD-1 mice; type: in vivo, Cryptococcus neoformans; settings: for reduction of CFU in brain vs untreated control / reduction of CFU in lung vs untreated control: preliminary experiment, 100 mg/kg ABT PO 2 h prior to each dose, n=5
Description: Efficacy of exemplary compounds in a murine model of cryptococcal meningitis when dosed in the presence of the pan-CYP inhibitor ABT. […] 100 mg/kg ABT was administered orally to male CD-1 mice 2 h prior to compound administration. Mice were injected with 6.9×10^4 CFU C. neoformans strain H99 per mouse via lateral tail vein at T=0 h. Treatment with each prodrug was initiated about 1 h post-infection by IP administration and continued daily for 7 days with 100 mg/kg ABT administered orally 2 h prior to each dose of compound. The mean log10 CFU/g brain and lung counts in untreated control mice were 7.83±0.09 and 4.67±0.88, respectively (FIG. 1).
[…] A 60 mg/kg dose QD without ABT was also evaluated as a control.
Cryptococcal meningitis model. C. neoformans strain H99 was grown in YPD broth at 30° C. on a shaker (220 rpm) for 24 h, centrifuged (1980 ref) and washed twice in PBS, resuspended in PBS, and quantified by hemacytometric count. CD-1 male mice were infected with ˜5×10^4 CFU per mouse via lateral tail vein injection of 100 μL. Mice were weighed, and treatment was within 1 h after infection. Treatments were administered daily for seven days. Mice were weighed daily and observed for acute and chronic adverse symptoms. Mice were sacrificed on day 8, and brain and left lung were homogenized and cultured for quantitative determination of tissue burden (CFU per gram of tissue). Tissues were homogenized for 25 seconds in […] phosphate buffered saline using two 6.5 mm steel beads and a Mini-Beadbeater 16 (Biospec Products, Inc., Bartlesville, Okla.), and serially diluted in 10-fold steps. Aliquots ([…]) of homogenate were plated and incubated for 3 to 7 days at 37° C. Fungal burden data were log10 transformed and evaluated using Kruskal-Wallis tests with Dunn's Multiple Comparison Test for Post-hoc analysis (Prism 5; GraphPad Software, Inc., San Diego, Calif.). A P value of ≤0.05 is considered statistically significant.

A. fumigatus MYA3626 = test: Antifungal susceptibility testing, CLSI broth microdilution (Example 496/497); type: cell-based, Aspergillus fumigatus; settings: Aspergillus fumigatus, MYA3626; MEC, shortening of hyphae, 40 to 48 h; read-out: MIC or MEC A. fumigatus MYA3626
Text: as §1, §2

[2] = test system: Aspergillus fumigatus MYA3626; test: In vitro antifungal assay (Example IX), microdilution broth, MEC; type: cell-based; settings: minimum effective concentration (shortening of hyphae), 35° C., 40-48 h, RPMI1640
Summary of the method: (§3)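 Spore suspensions of A. fumigatus and R. pusillus adjusted to 1-2×10^4 spores/mL in RPMI1640 and exposed to compound dilutions prepared in DMSO, by broth microdilution. MEC taken as the lowest concentration shortening hyphae versus DMSO control wells, read as for echinocandins.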

[3] = test system: Rhizomucor pusillus 46342; test: as above; type: cell-based; settings: minimum effective concentration (shortening of hyphae), 35° C., 40-48 h, RPMI1640
Summary of the method: as §3

Cryptococcus gattii = test: In vitro antifungal assay (Example IX), microdilution broth, MIC; type: cell-based; settings: minimum inhibitory concentration (≥50% inhibition), 35° C., 72 h (Cryptococcus), RPMI1640
Summary of the method: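 Broth microdilution in RPMI1640 with 2.5×10^3 cells/mL inoculum; final compound concentrations were 2–0.0019 μg/mL, with 1% DMSO. Cryptococcus plates were incubated at 35 °C for 72 h, and growth was read at 600 nm to give the MIC.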

[4] = test system: Cryptococcus neoformans H99; test: as above; type: cell-based; settings: minimum inhibitory concentration (≥50% inhibition), 35° C., 72 h, RPMI1640
Summary of the method: (§4)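 CLSI broth microdilution in RPMI1640 with 2.5×10^3 cells/mL and final compound concentrations of 2-0.0019 μg/mL (1% DMSO). C. albicans 90028 plates were incubated at 35° C. for 40-48 h and C. neoformans H99 for 72 h. MIC was read as minimum inhibitory concentration, verified at 600 nm.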

Candida albicans 90028 = test: as above; type: cell-based; settings: minimum inhibitory concentration (≥50% inhibition), 35° C., 40-48 h, RPMI1640
Summary of the method: as §4

[5] = in the presence of ABT, 20 mg/kg Ex. 172 prodrug, 60 mg/kg Ex. 173 prodrug, 80 mg/kg Compound 1

For `Nc1ncccc1-c1cc(Cc2ccc(Oc3cccc(F)n3)cc2)no1`, the “fold lower MIC values compared to Compound 2 vs Cryptococcus” value [1] was 32 fold, the MIC (C. neoformans H99; Cryptococcus neoformans, H99, 72 h, read-out: MIC C. neoformans H99) was 0.008 µg/mL (≈ 0.0221 µM) and the “fold improved anti-C. neoformans H99 activity compared to Compound 2” value (C. neoformans H99; from MIC values) was 32 fold. The “exposure, fold higher than the three other compounds” value (oral administration of prodrug with ABT) was “approximately 2 fold” and the “AUC, fold higher than the other compounds” value (prodrugs administered IP) was “approximately 2 fold”.
With `Nc1c(-c2cc(Cc3ccc(OCc4ccccc4)cc3)no2)ccc[n+]1COP(=O)([O-])O` the “log10 CFU/g brain reductions at doses of similar AUC (approximately 80 μg·h/mL)” value (C. neoformans strain H99; [5]) was 1.45 log10 CFU/g, the “log10 CFU/g lung reductions at doses of similar AUC (approximately 80 μg·h/mL)” value (C. neoformans strain H99; [5]) was 1.55 log10 CFU/g and the “reduction of CFU in brain vs untreated control” value (C. neoformans strain H99; 34 mg/kg QD IP 7 days) was 1.66 log10 CFU/g. The “reduction of CFU in lung vs untreated control” value (C. neoformans strain H99; 34 mg/kg QD IP 7 days) was 1.07 log10 CFU/g, the “reduction of CFU in brain vs untreated control” value (C. neoformans strain H99; 85 mg/kg QD IP 7 days) was 2.72 log10 CFU/g and the “reduction of CFU in lung vs untreated control” value (C. neoformans strain H99; 85 mg/kg QD IP 7 days) was 3.28 log10 CFU/g.
Compound `Nc1ncccc1-c1cc(Cc2ccc(Oc3cccc(F)n3)cc2)no1` [Ex. 111] has an MIC (A. fumigatus MYA3626) of 0.063 µg/mL (≈ 0.174 µM), a minimal effective concentration [2] of 0.01 to 0.1 µg/mL and a minimal effective concentration [3] of 0.1 to 1 µg/mL. It also gave an MIC (Cryptococcus gattii) of no more than 0.01 µg/mL, an MIC [4] of no more than 0.01 µg/mL and an MIC (Candida albicans 90028) of 0.01 to 0.1 µg/mL (≈ 0.0276 to 0.276 µM).
